What was measured:
Assay in all cases: radiometric filter-binding kinase assay, Kinase HotSpot
Details in all cases: compound 0.5 µM; ATP 10 µM
ACVRL1 (human) = ACVRL1 (human) (UniProt P37023)
BTK (human) = BTK (human) (UniProt Q06187)
CAMK2A (human) = CAMK2A (human) (UniProt Q9UQM7)
CLK3 (human) = CLK3 (human) (UniProt P49761)
CSNK1D (human) = CSNK1D (human) (UniProt P48730)
CSNK1E (human) = CSNK1E (human) (UniProt P49674)
CSNK1G1 (human) = CSNK1G1 (human) (UniProt Q9HCP0)
CSNK1G3 (human) = CSNK1G3 (human) (UniProt Q9Y6M4)
DDR2 (human) = DDR2 (human) (UniProt Q16832)
DYRK3 (human) = DYRK3 (human) (UniProt O43781)
EPHA1 (human) = EPHA1 (human) (UniProt P21709)
EPHA8 (human) = EPHA8 (human) (UniProt P29322)
EPHB3 (human) = EPHB3 (human) (UniProt P54753)
FGFR2 (human) = FGFR2 (human) (UniProt P21802)
FGFR3 (human) = FGFR3 (human) (UniProt P22607)
GSK3A (human) = GSK3A (human) (UniProt P49840)
HCK (human) = HCK (human) (UniProt P08631)
JAK2 JH1 JH2 (human) = JAK2 JH1 JH2 (human) (UniProt O60674)
MAP3K3 (human) = MAP3K3 (human) (UniProt Q99759)
MAP4K2 (human) = MAP4K2 (human) (UniProt Q12851)
MARK2 (human) = MARK2 (human) (UniProt Q7KZI7)
MATK (human) = MATK (human) (UniProt P42679)
MERTK (human) = MERTK (human) (UniProt Q12866)
MST1R (human) = MST1R (human) (UniProt Q04912)
MUSK (human) = MUSK (human) (UniProt O15146)
NEK11 (human) = NEK11 (human) (UniProt Q8NG66)
NEK4 (human) = NEK4 (human) (UniProt P51957)
NTRK2 (human) = NTRK2 (human) (UniProt Q16620)
NUAK1 (human) = NUAK1 (human) (UniProt O60285)
PHKG1 (human) = PHKG1 (human) (UniProt Q16816)
PIM1 (human) = PIM1 (human) (UniProt P11309)
PIM3 (human) = PIM3 (human) (UniProt Q86V86)
PLK1 (human) = PLK1 (human) (UniProt P53350)
PLK2 (human) = PLK2 (human) (UniProt Q9NYY3)
PRKX (human) = PRKX (human) (UniProt P51817)
SGK3 (human) = SGK3 (human) (UniProt Q96BR1)
SIK2 (human) = SIK2 (human) (UniProt Q9H0K1)
STK11 (human) = STK11 (human) (UniProt Q15831)
STK17A (human) = STK17A (human) (UniProt Q9UEE5)
TSSK2 (human) = TSSK2 (human) (UniProt Q96PF2)
TYRO3 (human) = TYRO3 (human) (UniProt Q06418)
WNK2 (human) = WNK2 (human) (UniProt Q9Y3S1)

STK11 (human), sequence (Q15831 whole entry, looked up): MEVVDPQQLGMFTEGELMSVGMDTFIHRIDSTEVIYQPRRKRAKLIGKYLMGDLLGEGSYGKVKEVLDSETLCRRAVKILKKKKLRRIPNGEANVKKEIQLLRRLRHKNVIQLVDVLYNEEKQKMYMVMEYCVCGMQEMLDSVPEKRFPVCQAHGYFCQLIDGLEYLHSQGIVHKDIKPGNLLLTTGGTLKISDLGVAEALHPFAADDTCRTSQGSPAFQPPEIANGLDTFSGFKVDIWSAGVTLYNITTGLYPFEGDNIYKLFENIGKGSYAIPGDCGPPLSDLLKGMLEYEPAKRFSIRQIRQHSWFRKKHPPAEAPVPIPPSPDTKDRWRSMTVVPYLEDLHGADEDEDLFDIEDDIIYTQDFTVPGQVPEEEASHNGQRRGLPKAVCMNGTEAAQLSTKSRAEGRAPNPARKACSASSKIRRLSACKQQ
CSNK1E (human), sequence (P49674 whole entry, looked up): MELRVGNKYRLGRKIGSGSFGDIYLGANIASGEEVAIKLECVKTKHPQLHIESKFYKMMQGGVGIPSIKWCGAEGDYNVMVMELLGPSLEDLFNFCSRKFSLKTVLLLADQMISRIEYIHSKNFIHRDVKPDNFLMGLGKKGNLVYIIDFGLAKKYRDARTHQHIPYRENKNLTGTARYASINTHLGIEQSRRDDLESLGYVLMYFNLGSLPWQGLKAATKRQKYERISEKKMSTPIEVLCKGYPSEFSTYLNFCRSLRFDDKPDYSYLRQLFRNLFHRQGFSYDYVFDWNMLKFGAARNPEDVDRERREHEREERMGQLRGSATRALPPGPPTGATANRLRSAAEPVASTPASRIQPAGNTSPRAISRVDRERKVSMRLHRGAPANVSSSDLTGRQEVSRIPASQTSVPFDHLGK
MERTK (human), sequence (Q12866 whole entry, looked up): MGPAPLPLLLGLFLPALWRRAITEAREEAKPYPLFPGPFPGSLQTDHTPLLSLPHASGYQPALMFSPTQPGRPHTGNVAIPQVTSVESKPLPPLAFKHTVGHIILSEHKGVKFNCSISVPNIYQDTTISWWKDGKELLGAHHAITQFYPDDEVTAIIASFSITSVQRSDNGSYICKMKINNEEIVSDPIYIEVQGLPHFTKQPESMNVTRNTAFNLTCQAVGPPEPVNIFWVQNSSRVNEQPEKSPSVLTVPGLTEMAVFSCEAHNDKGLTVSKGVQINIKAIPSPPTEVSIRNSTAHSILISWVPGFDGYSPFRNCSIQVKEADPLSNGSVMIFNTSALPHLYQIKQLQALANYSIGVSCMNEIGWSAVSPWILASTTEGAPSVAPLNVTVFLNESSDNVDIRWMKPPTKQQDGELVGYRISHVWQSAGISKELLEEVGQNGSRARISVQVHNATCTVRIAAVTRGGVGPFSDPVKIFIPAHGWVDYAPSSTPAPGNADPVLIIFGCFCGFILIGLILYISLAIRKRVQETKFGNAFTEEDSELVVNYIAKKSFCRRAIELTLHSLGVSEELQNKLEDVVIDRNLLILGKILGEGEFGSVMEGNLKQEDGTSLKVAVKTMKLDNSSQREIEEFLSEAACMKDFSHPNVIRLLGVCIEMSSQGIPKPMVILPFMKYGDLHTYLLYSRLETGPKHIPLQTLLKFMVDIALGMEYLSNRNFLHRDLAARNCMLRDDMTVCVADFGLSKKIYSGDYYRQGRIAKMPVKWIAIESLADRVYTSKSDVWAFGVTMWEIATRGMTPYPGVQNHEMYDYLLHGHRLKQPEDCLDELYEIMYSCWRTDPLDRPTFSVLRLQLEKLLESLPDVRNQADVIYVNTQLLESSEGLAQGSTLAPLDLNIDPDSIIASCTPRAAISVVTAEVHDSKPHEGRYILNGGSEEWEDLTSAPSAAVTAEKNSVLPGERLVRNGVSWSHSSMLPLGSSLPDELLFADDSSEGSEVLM
MST1R (human), sequence (Q04912 whole entry, looked up): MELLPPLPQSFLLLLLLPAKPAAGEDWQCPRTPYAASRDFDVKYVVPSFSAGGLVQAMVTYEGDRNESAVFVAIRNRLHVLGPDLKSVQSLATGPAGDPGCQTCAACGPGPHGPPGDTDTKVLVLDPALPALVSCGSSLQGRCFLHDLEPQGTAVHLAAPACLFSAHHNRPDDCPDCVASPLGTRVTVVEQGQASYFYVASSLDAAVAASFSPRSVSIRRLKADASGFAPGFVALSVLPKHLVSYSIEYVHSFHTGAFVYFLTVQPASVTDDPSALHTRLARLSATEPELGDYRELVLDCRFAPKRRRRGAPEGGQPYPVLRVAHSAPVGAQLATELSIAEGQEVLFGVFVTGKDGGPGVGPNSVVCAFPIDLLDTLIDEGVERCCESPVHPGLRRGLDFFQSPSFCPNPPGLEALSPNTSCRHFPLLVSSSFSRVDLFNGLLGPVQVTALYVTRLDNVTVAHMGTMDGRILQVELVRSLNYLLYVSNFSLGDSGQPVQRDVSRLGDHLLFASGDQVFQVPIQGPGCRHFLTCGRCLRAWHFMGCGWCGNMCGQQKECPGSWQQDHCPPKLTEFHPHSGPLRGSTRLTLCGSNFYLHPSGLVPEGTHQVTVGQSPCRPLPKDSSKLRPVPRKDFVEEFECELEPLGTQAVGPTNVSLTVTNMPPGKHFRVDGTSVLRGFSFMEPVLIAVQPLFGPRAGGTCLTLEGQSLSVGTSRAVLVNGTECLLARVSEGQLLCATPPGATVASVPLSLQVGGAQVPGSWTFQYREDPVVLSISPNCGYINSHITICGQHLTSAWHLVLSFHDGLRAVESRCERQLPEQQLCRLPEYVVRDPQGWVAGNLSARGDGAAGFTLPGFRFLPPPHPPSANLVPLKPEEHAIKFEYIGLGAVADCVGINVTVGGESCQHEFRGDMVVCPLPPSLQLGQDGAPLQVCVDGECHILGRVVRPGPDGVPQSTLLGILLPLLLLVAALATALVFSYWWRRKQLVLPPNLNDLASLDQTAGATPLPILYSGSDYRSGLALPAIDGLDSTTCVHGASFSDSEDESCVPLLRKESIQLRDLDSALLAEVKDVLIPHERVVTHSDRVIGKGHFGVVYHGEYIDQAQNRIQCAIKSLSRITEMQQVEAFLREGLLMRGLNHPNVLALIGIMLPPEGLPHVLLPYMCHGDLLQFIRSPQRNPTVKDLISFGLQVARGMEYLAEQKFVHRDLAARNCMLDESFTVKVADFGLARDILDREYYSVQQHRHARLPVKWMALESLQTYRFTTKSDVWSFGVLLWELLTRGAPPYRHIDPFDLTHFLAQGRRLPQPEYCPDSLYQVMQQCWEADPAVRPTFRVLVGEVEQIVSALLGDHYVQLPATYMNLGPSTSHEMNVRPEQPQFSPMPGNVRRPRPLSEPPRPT
CLK3 (human), sequence (P49761 whole entry, looked up): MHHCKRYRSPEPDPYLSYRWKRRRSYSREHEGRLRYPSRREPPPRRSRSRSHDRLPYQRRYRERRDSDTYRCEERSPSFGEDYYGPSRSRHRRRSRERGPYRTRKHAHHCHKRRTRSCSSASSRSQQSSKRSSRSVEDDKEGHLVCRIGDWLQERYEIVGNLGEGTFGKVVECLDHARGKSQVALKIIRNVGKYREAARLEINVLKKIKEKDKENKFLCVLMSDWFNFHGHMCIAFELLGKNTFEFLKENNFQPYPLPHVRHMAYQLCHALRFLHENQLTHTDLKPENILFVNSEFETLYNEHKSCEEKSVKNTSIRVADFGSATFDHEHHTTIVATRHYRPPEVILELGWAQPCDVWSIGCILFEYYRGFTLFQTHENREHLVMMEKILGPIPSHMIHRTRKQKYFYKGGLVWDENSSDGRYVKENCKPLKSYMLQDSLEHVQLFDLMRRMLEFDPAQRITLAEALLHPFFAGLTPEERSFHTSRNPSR
FGFR2 (human), sequence (P21802 whole entry, looked up): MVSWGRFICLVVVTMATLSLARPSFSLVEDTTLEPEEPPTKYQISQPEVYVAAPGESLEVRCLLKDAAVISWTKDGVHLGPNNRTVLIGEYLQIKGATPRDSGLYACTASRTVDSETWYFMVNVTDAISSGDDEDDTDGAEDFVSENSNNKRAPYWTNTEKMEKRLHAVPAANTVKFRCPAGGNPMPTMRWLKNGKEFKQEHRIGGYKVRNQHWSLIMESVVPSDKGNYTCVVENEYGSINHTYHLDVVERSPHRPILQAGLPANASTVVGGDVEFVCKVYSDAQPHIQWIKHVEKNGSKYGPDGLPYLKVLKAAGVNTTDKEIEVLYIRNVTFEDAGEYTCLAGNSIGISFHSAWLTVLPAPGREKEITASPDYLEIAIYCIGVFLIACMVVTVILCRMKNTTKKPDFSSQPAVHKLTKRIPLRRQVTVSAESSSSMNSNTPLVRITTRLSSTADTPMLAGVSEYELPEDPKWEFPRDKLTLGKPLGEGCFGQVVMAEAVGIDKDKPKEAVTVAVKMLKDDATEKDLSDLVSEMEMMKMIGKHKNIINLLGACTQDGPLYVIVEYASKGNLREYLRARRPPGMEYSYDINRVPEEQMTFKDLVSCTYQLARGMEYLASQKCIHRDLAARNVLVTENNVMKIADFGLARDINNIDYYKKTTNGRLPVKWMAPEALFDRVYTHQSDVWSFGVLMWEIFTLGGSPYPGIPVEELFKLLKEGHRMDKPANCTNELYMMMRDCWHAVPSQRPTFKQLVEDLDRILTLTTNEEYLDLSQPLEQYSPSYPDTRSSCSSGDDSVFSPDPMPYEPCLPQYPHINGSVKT
CSNK1G1 (human), sequence (Q9HCP0 whole entry, looked up): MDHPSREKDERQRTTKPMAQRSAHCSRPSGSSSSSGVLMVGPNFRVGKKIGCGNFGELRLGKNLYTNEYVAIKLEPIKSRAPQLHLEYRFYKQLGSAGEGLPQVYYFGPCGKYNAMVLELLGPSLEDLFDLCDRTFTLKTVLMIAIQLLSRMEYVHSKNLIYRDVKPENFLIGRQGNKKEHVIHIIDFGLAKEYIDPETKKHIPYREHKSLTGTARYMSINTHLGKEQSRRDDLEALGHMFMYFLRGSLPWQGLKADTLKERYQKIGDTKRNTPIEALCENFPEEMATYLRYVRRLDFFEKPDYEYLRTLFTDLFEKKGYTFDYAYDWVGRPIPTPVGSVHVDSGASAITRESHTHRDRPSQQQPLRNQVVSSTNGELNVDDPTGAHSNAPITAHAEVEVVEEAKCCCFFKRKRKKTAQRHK

O=c1cc(N2CCOCC2)oc2c1ccc1ccccc12
residual activity (ACVRL1 (human)): 100% | residual activity (BTK (human)): 112% | residual activity (CAMK2A (human)): 99.4% | residual activity (CLK3 (human)): 81.1% | residual activity (CSNK1D (human)): 97.9% | residual activity (CSNK1E (human)): 92.5% | residual activity (CSNK1G1 (human)): 101% | residual activity (CSNK1G3 (human)): 98.1% | residual activity (DDR2 (human)): 105% | residual activity (DYRK3 (human)): 96% | residual activity (EPHA1 (human)): 94.2% | residual activity (EPHA8 (human)): 101% | residual activity (EPHB3 (human)): 90% | residual activity (FGFR2 (human)): 107% | residual activity (FGFR3 (human)): 98.2% | residual activity (GSK3A (human)): 97.1% | residual activity (HCK (human)): 114% | residual activity (JAK2 JH1 JH2 (human)): 94.9% | residual activity (MAP3K3 (human)): 102% | residual activity (MAP4K2 (human)): 118% | residual activity (MARK2 (human)): 101% | residual activity (MATK (human)): 90.7% | residual activity (MERTK (human)): 96.4% | residual activity (MST1R (human)): 103% | residual activity (MUSK (human)): 75.6% | residual activity (NEK11 (human)): 99.1% | residual activity (NEK4 (human)): 97.4% | residual activity (NTRK2 (human)): 94% | residual activity (NUAK1 (human)): 90.1% | residual activity (PHKG1 (human)): 98.2% | residual activity (PIM1 (human)): 54.8% | residual activity (PIM3 (human)): 95.4% | residual activity (PLK1 (human)): 68.4% | residual activity (PLK2 (human)): 106% | residual activity (PRKX (human)): 96.6% | residual activity (SGK3 (human)): 106% | residual activity (SIK2 (human)): 126% | residual activity (STK11 (human)): 104% | residual activity (STK17A (human)): 94.6% | residual activity (TSSK2 (human)): 100% | residual activity (TYRO3 (human)): 97.3% | residual activity (WNK2 (human)): 103%

CCC(=O)Nc1ccc2ncnc(Nc3cccc(Br)c3)c2c1
residual activity (ACVRL1 (human)): 97.4% | residual activity (BTK (human)): 89.4% | residual activity (CAMK2A (human)): 85.7% | residual activity (CLK3 (human)): 99.3% | residual activity (CSNK1D (human)): 96.9% | residual activity (CSNK1E (human)): 98.2% | residual activity (CSNK1G1 (human)): 98.6% | residual activity (CSNK1G3 (human)): 91.6% | residual activity (DDR2 (human)): 109% | residual activity (DYRK3 (human)): 92.3% | residual activity (EPHA1 (human)): 89.5% | residual activity (EPHA8 (human)): 96.6% | residual activity (EPHB3 (human)): 89.4% | residual activity (FGFR2 (human)): 99.8% | residual activity (FGFR3 (human)): 93.2% | residual activity (GSK3A (human)): 98.2% | residual activity (HCK (human)): 93% | residual activity (JAK2 JH1 JH2 (human)): 103% | residual activity (MAP3K3 (human)): 89.8% | residual activity (MAP4K2 (human)): 90.5% | residual activity (MARK2 (human)): 73.5% | residual activity (MATK (human)): 93.4% | residual activity (MERTK (human)): 83.9% | residual activity (MST1R (human)): 97.2% | residual activity (MUSK (human)): 87.8% | residual activity (NEK11 (human)): 103% | residual activity (NEK4 (human)): 94.7% | residual activity (NTRK2 (human)): 77.1% | residual activity (NUAK1 (human)): 87.3% | residual activity (PHKG1 (human)): 92.4% | residual activity (PIM1 (human)): 85.3% | residual activity (PIM3 (human)): 76.6% | residual activity (PLK1 (human)): 95.3% | residual activity (PLK2 (human)): 108% | residual activity (PRKX (human)): 95.7% | residual activity (SGK3 (human)): 92.8% | residual activity (SIK2 (human)): 98.7% | residual activity (STK11 (human)): 103% | residual activity (STK17A (human)): 88.7% | residual activity (TSSK2 (human)): 82.8% | residual activity (TYRO3 (human)): 101% | residual activity (WNK2 (human)): 107%

Reference: the kinase profiling compilation of Christmann-Franck et al. (2016)
